Numbers after ± are expanded uncertainties.

For series [1] the following is noted: 293.15 K; 101.33 kPa; Liquid.
Series [2] can be described thus: refractive index (Na D-line) (dimensionless). Conditions: 293.15 K; 101.33 kPa; Liquid; Standard Abbe refractometry.

Regarding `CC(C)CC(=O)CC(C)C` [2,6-dimethyl-4-heptanone], the mass density in series [1] is listed as 804.8 ± 1.3 kg/m3. The refractive index in series [2] came to 1.4155 ± 0.0008.
Consider `CC(=O)CCC(C)C` [5-methyl-2-hexanone], for which, in series [1], the mass density amounted to 887.5 ± 1 kg/m3. Moreover, the refractive index in series [2] turned out to be 1.4074 ± 0.0008.
In the same order, the values of `CCC(=O)CCC(C)C` [6-methyl-3-heptanone] are 822.7 ± 1.2 kg/m3 and 1.4194 ± 0.0008.
In the same order, the values of `CCC(=O)O` [propanoic acid] are 992.7 ± 0.6 kg/m3 and 1.3811 ± 0.0008.

By mass density is commonly meant the mass of a sample divided by its volume. One may read the refractive index as a measure of how strongly the sample bends light.

The values above are taken from the NIST ThermoML archive (doi:10.1016/j.fluid.2006.10.004).
